Data set [1] concerns mouse PRP (platelet rich plasma). The data set is described as follows: In vitro platelet aggregation assay (ADP, Aggregometer). Type of data set: cell-based. Conditions: for IC50: ADP, mouse PRP, read-out: IC50 platelet aggregation inhibition. An excerpt:
Saxatilin derivatives and ADP were administrated to mouse PRP (platelet rich plasma) and measured aggregation level using Aggregometer (CHRONO-LOG, USA) to evaluate activity of the present saxatilin derivatives (Table 1).

Data set [2] has as its system FeCl3-induced carotid thrombus. The data set is described as follows: Intravenous thrombolysis in FeCl3-induced carotid artery thrombosis model (carotid blood flow). Type of data set: in vivo, ICR mice.
Data set [3] can be described thus: Mortality and bleeding after the r-saxatilin treatment. Type of data set: in vivo, ICR mice. Conditions: 5 mg/kg bolus injection group. An excerpt:
Total 51 animals were used for evaluation of thrombolytic effects of r-saxatilin.

Data set [4] relates to FeCl3-induced carotid thrombus. Briefly: Intravenous thrombolysis in FeCl3-induced carotid artery thrombosis model (carotid blood flow). Type of data set: in vivo, ICR mice. On the procedure: 8-week-old male ICR (Institute of Cancer Research) mice (OrientBio) were used. The care and use of laboratory animals were performed according to institutionally approved protocol in accordance with the National Institutes of Health's Guide for the care and use of laboratory animals. For operative procedures, the animals were anesthetized with an inhalation of 5% isoflurane in a mixture of 70% N2O and 30% O2. Anesthesia was maintained with 2% isoflurane. During the operative procedures, body temperature was monitored continuously with a rectal probe and was maintained at 37.0±0.2° C. by means of a homeothermic blanket control unit and heating pad (Harvard Apparatus, Holliston, Mass.). To test the thrombolytic activity of r-saxatilin in vivo, FeCl3 (Sigma Aldrich, USA)-induced carotid thrombus model was utilized. A midline cervical incision was made, and the left common carotid artery was carefully dissected under a surgical microscope. An ultrasonic Doppler flow probe (Transonic MA0.7PSB) was placed around midportion of the common carotid artery (CCA). Carotid blood flow was obtained with a Transonic TS420 Blood Flow Meter (Transonic Instruments, Ithaca, N.Y.) and iWorx IX-304T data acquisition system (iWorx Systems, Inc., Dover, N.H.). The control baseline flow of the CCA was measured for 5 minutes. After the determination of the control baseline flow, the probe was removed. Oxidative vascular injury with chemical stress was induced by placing a filter paper (700×500 μm) saturated with 50% FeCl3 on the adventitial surface of the midpoint of the exposed CCA for 5 min. After removing the filter paper, the CCA was washed with normal saline and its blood flow was recorded. Thrombus formation and arterial occlusion were determined by decrease of blood flow and the complete occlusion was defined as absence of blood flow maintained for 10 minutes.
Ten minutes after occlusion of the CCA, r-saxatilin was administered intravenously via the left femoral vein by using an infusion pump (KD Scientific Inc., USA) connected to PE-10 tubing. The carotid blood flow was continuously monitored for 2 hours from the initial time of injection.
To evaluate dose response of r-saxatilin, the animals were randomly divided into seven groups (five mice in each group): normal saline (control group), 1, 1.75, 2.5, 3.75, 5.0, and 10.0 mg/kg of r-saxatilin administration groups. 10% of the dose was administered in bolus intravenously and the rest was infused continuously for 60 min.
Effects of r-saxatilin for thrombolysis were assessed according to administration method. For this experiment, a total dose of 5 mg/kg of r-saxatilin was used in each animal, and the animals were divided into four groups (five mice in each group): (a) bolus injection of total dose (5 mg/kg); (b) double bolus injection of r-saxatilin with a half dose (2.5 mg/kg) of r-saxatilin at 10 min after occlusion and 60 min after the first bolus injection; (c) a half dose bolus injection (2.5 mg/kg) at 10 min after occlusion, and then continuous infusion for 60 min of the remaining dose; and (d) bolus injection of 10% of the total dose (0.5 mg/kg) at 10 min after occlusion, and then continuous infusion of the remaining dose (4.5 mg/kg) for 60 min.
The presence and degree of recanalization were assessed by measuring blood flow. Data of blood flow at baseline and those monitored continuously for 2 hours after CCA occlusion were acquired by using iWorx Labscribe2 data acquisition software (version 2.045000). Immediately after 2 hours of blood flow monitoring, the CCA was obtained in all mice, fixed with 4% paraformaldehyde solution, and embedded in paraffin for histological examination. The paraffin blocks were consecutively sectioned in a transverse direction with 3 μm-thickness, mounted on a glass slide, and stained with hematoxylin and eosin.
The carotid blood flow was analyzed by the area under the flow-time curves. […]
The source holds these as a separate data set.

Setting [5] is: total 5 mg/kg, bolus injection of total dose.

“Also recorded” adds a separate entry of the source.

In general, IC50 refers to the concentration at which inhibition is half-maximal. For “XL2: saxatilin derivative (deletion mutant), SEQ ID NO:7, expressed in Pichia (CKLRPGAQCAEGLCCDQCRFMKEGTICRMARGDDMDDYCNGISAGC; aritificially made peptide comprising Arg-Gly-Asp motif having thrombolytic activity)”, the IC50 in data set [1] came out at 986 nM.
In the case of saxatilin, the “restored blood flow (area under flow-time curve)” value in data set [2] (20 mg/kg) came to 60.92±39.52%. Also, the “restoration of blood flow and reocclusion” value in data set [2] (40 mg/kg) was “restored to normal blood flow and maintained without reocclusion”. Further, the concentration for half-maximal inhibition (IC50) in data set [1] is 176 nM. In addition, in data set [1] (FIG. 6), the “treatment concentration giving similar level of aggregation inhibition” value is “approximately 0.7 μM”. Moreover, in data set [3], the “bleeding in the cervical incision” value was “one animal suffered bleeding”. Further, in data set [3] (about 90 min after bolus, total 51 animals), the mortality result is listed as “one animal was died from bleeding”. Besides, the “effective recanalization (blood flow >=50% of baseline maintained >30 min), mice” value in data set [4] (1 mg/kg) is given as “No effective recanalization”. Further, the “blood flow, area under flow-time curve, percent of mean control baseline blood flow” value turned out to be 2.36±0.78% in data set [4] (1 mg/kg i.v., 10% bolus + 60 min infusion, 2 h monitoring); 4.97±3.94% in data set [4] (1.75 mg/kg i.v., 10% bolus + 60 min infusion); 32.50±33.70% in data set [4] (2.5 mg/kg i.v., 10% bolus + 60 min infusion). The “effective recanalization, mice” value was “No effective recanalization” in data set [4] (1.75 mg/kg); “two of five” in data set [4] (2.5 mg/kg); “three of five” in data set [4] (3.75 mg/kg); “all mice” in data set [4] (5 mg/kg, 10% bolus + infusion); “all mice” in data set [4] (10 mg/kg). Besides, the “time to effective recanalization” value amounted to 32.92 ± 23.52 min in data set [4] (2.5 mg/kg); 21.75 ± 21.62 min in data set [4] (3.75 mg/kg); 13.92 ± 6.02 min in data set [4] (5 mg/kg, bolus 10% of total dose + continuous infusion); 2.86 ± 0.22 min in data set [4] (5 mg/kg, bolus injection of total dose); 13.44 ± 26.31 min in data set [4] (5 mg/kg, double bolus injection); 19.48 ± 25.94 min in data set [4] (5 mg/kg, half dose bolus and continuous infusion of other half). Besides, the “time to effective recanalization” value in data set [4] (10 mg/kg) was determined as 19.46 ± 19.75 min. For the same substance, in data set [4] (10 mg/kg i.v., 10% bolus + 60 min infusion, listed as r-saxatilin), the “blood flow, area under flow-time curve, versus baseline and 5 mg/kg” value is “no significant difference; also recorded: restored nearly to the baseline level”. Also, in data set [4] (total 5 mg/kg, bolus 10% of total dose + continuous infusion of remaining dose), the reocclusion entry is “no reocclusion”. The “mean percentage of blood flow compared to baseline blood flow” value is 77.01±46.11% in data set [4] (setting [5]); 85.23±29.95% in data set [4] (total 5 mg/kg, double bolus injection with a half dose (2.5 mg/kg each)); 80.72±30.13% in data set [4] (total 5 mg/kg, half dose bolus then continuous infusion of remaining dose for 60 min). Also, the “time point of abrupt reocclusion” value in data set [4] (setting [5]) was “about 100 min”; in data set [4] (total 5 mg/kg, double bolus injection, after the first injection) it was “about 50 min”; in data set [4] (total 5 mg/kg, half dose bolus and continuous infusion of other half) it was “about 110 min”.

(Values after patent publication US9982021B2, “Composition for dissolving thrombi, and a pharmaceutical composition for treating stenotic or occlusive vascular diseases which comprises the same” (INDUSTRY-ACADEMIC COOPERATION FOUNDATION, YONSEI UNIVERSITY, priority 2010, dated 2018).)
